What was measured:
Cel-AVR-14B/GLC-2 = target: T1, Cel-AVR-14B/GLC-2 (Caenorhabditis elegans, UniProt Q17328+Q17369); test: two-electrode voltage clamp, Xenopus oocytes; type: cell-based
T1 sequence (Q17369 22-430): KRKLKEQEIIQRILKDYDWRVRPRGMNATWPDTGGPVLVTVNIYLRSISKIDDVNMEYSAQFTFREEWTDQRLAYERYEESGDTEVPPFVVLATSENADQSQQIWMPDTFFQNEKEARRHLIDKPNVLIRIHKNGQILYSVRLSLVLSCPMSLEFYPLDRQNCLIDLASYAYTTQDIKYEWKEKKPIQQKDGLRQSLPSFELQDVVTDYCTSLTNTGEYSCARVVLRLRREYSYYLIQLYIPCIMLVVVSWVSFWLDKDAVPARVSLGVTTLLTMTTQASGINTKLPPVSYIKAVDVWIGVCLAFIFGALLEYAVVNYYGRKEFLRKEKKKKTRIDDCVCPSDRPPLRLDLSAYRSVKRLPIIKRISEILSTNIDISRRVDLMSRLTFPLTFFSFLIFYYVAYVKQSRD
T1 sequence (Q17328 23-434): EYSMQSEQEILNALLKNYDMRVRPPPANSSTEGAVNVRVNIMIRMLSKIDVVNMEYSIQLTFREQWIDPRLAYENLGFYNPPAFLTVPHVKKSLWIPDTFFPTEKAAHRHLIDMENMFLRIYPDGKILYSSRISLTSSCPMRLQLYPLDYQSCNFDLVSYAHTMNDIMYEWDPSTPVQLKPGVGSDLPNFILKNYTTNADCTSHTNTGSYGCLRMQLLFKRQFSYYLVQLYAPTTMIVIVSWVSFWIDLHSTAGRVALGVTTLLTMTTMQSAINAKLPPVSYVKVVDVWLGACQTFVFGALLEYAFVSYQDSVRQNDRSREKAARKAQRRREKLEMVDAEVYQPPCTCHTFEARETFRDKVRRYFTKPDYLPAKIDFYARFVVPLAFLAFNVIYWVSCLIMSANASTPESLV

Pun-AVR-14B/GLC-2 = target: T2, Pun-AVR-14B/GLC-2 (Parascaris univalens, UniProt A0A894K7G1+A0A894KE58); test: two-electrode voltage clamp, Xenopus oocytes; type: cell-based
T2 sequence (A0A894K7G1 19-428): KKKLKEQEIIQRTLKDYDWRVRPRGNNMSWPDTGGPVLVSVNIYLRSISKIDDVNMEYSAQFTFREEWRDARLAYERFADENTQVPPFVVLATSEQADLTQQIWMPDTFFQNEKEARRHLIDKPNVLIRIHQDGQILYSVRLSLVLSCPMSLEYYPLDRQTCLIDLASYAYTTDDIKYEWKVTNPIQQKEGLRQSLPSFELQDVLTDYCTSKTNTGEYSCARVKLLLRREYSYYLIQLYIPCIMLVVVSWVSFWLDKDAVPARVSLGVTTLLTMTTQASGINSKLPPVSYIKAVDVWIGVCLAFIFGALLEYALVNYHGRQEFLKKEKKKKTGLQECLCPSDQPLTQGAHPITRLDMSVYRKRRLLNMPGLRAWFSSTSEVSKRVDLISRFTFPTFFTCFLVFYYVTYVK
T2 sequence (A0A894KE58 21-448): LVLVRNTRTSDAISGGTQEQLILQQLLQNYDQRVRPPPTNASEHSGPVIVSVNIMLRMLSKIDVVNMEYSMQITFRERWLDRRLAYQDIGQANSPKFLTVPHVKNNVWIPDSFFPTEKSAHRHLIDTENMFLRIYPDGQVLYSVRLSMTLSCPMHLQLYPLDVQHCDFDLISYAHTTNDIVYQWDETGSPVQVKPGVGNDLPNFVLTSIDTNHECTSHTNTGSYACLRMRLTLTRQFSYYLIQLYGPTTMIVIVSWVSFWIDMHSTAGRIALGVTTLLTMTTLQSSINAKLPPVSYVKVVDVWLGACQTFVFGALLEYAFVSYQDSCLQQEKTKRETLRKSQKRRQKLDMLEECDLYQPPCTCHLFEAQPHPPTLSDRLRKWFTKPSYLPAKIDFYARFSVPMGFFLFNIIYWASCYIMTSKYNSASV

SMILES: N[C@@H](CCC(=O)O)C(=O)O [glutamate]
- EC50 (Cel-AVR-14B/GLC-2): 19.4 µM
- EC50 (Pun-AVR-14B/GLC-2): 10.9 µM

— PMC9306661 (British Journal of Pharmacology, 2021)
